Values after ≈ are worked out from the molar mass of the structure shown.

For data set [1], the target named is T1, Prostaglandin D2 receptor 2 (Homo sapiens) (UniProt Q9Y5Y4).
T1 sequence (whole entry): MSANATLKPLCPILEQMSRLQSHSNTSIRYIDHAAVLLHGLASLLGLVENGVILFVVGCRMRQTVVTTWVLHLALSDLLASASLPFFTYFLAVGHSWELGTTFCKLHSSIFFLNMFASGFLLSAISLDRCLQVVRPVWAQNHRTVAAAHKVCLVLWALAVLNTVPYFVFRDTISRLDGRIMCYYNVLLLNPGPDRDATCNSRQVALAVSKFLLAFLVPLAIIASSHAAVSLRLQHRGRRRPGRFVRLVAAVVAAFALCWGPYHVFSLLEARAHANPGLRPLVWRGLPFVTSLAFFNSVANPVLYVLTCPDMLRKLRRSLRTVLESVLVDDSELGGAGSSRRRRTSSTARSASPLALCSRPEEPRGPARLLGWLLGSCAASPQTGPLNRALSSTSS
The data set is described as follows: Antagonist activity at human CRTH2 receptor expressed in […] cells assessed as inhibition of beta arrestin translocation by bioluminescence resonance energy transfer assay relative to control. Format: functional, cell-based.

Data set [2] concerns the target T2, Prostaglandin D2 receptor 2 (Homo sapiens, UniProt Q9Y5Y4).
T2 sequence (Q9Y5Y4 whole entry): T1 sequence (whole entry)
The data set is described as follows: Antagonist activity at human CRTH2 receptor expressed in […] cells assessed as inhibition of beta arrestin translocation by bioluminescence resonance energy transfer assay. Format: functional, cell-based.

The target in data set [3] is T2, Prostaglandin D2 receptor 2. The data set is described as follows: Displacement of[3H]PGD2 from human CRTH2 receptor expressed in african green monkey COS7 cells. Format: cell-based, COS-7.
Data set [4] has the same target. The data set is described as follows: Displacement of[3H]PGD2 from human CRTH2 receptor expressed in […] cells. Type of data set: cell-based.
Data set [5] can be described thus: Metabolic stability in rat liver S9 fraction assessed as compound remaining. Type of data set: ADME, subcellular.
Data set [6] deals with CYP2D6 (Homo sapiens, UniProt P10635). The data set is described as follows: Inhibition of CYP2D6 at 1 uM. Format: ADME.
Sequence of CYP2D6 (P10635 whole entry): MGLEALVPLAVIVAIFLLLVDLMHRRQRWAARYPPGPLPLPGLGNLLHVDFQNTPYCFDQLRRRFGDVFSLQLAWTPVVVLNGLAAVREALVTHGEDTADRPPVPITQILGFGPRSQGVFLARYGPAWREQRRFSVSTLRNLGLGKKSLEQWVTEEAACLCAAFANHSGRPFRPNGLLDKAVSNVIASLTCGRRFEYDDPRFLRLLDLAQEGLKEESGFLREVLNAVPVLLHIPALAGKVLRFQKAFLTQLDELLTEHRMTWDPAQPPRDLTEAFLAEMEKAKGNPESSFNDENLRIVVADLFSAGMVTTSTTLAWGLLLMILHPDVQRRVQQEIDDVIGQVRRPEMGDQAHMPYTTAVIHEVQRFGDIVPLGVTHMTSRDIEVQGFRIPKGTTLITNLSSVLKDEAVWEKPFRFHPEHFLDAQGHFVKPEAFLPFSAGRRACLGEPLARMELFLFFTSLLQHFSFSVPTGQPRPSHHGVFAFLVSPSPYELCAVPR
Data set [7] in a line: Metabolic stability in human liver S9 fraction assessed as compound remaining. Format: ADME, subcellular.
Data set [8] can be described thus: Half life in rat. Type of data set: ADME, organism-based. The settings on record: in vivo.
Data set [9] is described as follows: Clearance in rat. Format: ADME, organism-based. The following applies: in vivo.
The target of data set [10] is CYP3A4 (Homo sapiens, UniProt P08684). The data set is described as follows: Inhibition of CYP3A4 at 1 uM. Type of data set: ADME.
Sequence of CYP3A4 (P08684 whole entry): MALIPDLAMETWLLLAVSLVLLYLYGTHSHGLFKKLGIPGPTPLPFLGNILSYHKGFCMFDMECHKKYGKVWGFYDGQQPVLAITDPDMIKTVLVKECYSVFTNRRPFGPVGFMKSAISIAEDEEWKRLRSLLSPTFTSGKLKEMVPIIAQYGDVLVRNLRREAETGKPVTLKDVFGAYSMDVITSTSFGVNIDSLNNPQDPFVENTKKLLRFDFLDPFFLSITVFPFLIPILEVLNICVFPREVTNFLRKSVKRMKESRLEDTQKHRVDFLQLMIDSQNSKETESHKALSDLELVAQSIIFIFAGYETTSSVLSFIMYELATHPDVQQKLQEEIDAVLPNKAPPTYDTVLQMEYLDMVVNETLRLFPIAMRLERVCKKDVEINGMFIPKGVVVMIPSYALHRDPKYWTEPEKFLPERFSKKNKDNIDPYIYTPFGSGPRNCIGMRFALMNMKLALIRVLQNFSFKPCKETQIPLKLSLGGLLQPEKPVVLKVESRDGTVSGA
Data set [11] in a line: Bioavailability in rat. The settings on record: in vivo. Format: ADME, organism-based.
Data set [12] in a line: Octanol-water distribution coefficient, log D at pH 7.4. Type of data set: physicochemical.
Data set [13] is described as follows: Aqueous solubility at pH 1. Format: physicochemical.

As usually defined, the IC50 is the concentration needed to halve the response being measured. `O=C(O)Cc1sc(-c2ccco2)nc1-c1ccc(Cl)cc1`: the Efficacy in data set [1] is 50%. The IC50 came out at 3800 nM in data set [2] and 550 nM in [3].
Take `Cc1nc(-c2ccc(Cl)cc2)c(CC(=O)O)s1`: the Efficacy in [1] stood at 50%. The IC50 was determined as 41000 nM in data set [2] and 5500 nM in data set [3].
For `O=C(O)Cc1sc(C(c2ccc(F)cc2)c2ccc(F)cc2)nc1-c1cncc(F)c1`, in [1], the Efficacy stood at 80%. The IC50 is 300 nM in [2] and 71 nM in data set [4].
Turning to `O=C(O)Cc1sc(C(c2ccc(F)cc2)c2ccc(F)cc2)nc1-c1ccc(F)cc1`, in [1], the Efficacy came out at 80%. Also, the IC50 in data set [2] came to 72 nM; in [4], 7.5 nM.
Consider `N#Cc1ccc(-c2nc(C(c3ccc(F)cc3)c3ccc(F)cc3)sc2CC(=O)O)cc1`, for which the Efficacy in [1] came out at 30%. Further, the results for the IC50 in data set [2] and in data set [4] were 1500 nM and 150 nM, respectively.
`O=C(O)Cc1sc(C(c2ccc(F)cc2)c2ccc(F)cc2)nc1-c1ccnc(N2CCC2)c1`: the Efficacy in data set [1] was 80%. The IC50 is over 100000 nM in [2] and 660 nM in data set [4].
Consider `O=C(O)Cc1sc(C(c2ccccc2)c2ccccc2)nc1-c1ccc(F)cc1`, for which the Efficacy in data set [1] turned out to be 80%. For the same molecule, the IC50 in data set [2] came out at 77 nM; in data set [4] it was 8.7 nM.
Take `O=C(O)Cc1sc(C(c2ccccc2)c2ccc(Cl)cc2)nc1-c1ccc(F)cc1` (stereo not drawn): the Efficacy in data set [1] was determined as 80%. Moreover, the concentration for half-maximal inhibition (IC50) is 79 nM in data set [2] and 14 nM in data set [4].
In the case of `CC(=O)N1CCN(c2cc(-c3nc(C(c4ccc(F)cc4)c4ccc(F)cc4)sc3CC(=O)O)ccn2)CC1`, the Efficacy in data set [1] is 80%. Moreover, the values for the IC50 in data set [2] and in [4] were over 100000 nM and 360 nM, respectively.
Regarding `O=C(O)Cc1sc(C(c2ccccc2)c2cccc(Cl)n2)nc1-c1ccc(Cl)cc1` (stereo not drawn), the Efficacy in data set [1] was 80%. The IC50 was over 100000 nM in [2] and 3200 nM in [4].
The corresponding values for `O=C(O)Cc1sc(Nc2cccc3ccccc23)nc1-c1ccc(Cl)cc1` are 50%, 96 nM and 150 nM.
Consider `O=C(O)Cc1sc(C(c2ccc(F)cc2)c2ccc(F)cc2)nc1-c1ccc(F)c(F)c1`, for which, in data set [1], the Efficacy came out at 80%. Further, the figures for the IC50 in data set [2] and in data set [4] were 41 nM and 3.5 nM, respectively.
The corresponding values for `Nc1nc(-c2ccc(Cl)cc2)c(CC(=O)O)s1` are 50%, over 100000 nM and over 100000 nM.
For `O=C(O)Cc1sc(C(c2ccc(F)cc2)c2ccc(F)cc2)nc1-c1ccoc1`, in that order: 80%, 130 nM and 14 nM.
The corresponding values for `O=C(O)Cc1sc(CSc2ccccc2)nc1-c1ccc(Cl)cc1` are 50%, 450 nM and 250 nM.
With `Cc1cc(-c2nc(C(c3ccc(F)cc3)c3ccc(F)cc3)sc2CC(=O)O)ccn1`, the Efficacy in data set [1] was 80%. Further, the IC50 came out at 53 nM in data set [2] and 3.1 nM in data set [4].
With `O=C(O)Cc1sc(C2(c3ccccc3)CCNCC2)nc1-c1ccc(Cl)cc1`, the Efficacy in data set [1] worked out at 50%. Further, the IC50 was over 100000 nM in [2] and 2900 nM in [4].
The corresponding values for `O=C(O)Cc1sc(C(c2ccccc2)c2ccccc2)nc1-c1ccc(F)c(F)c1` are 80%, 43 nM and 4.1 nM.
For `O=C(O)Cc1sc(Cc2cccc3ccccc23)nc1-c1ccc(Cl)cc1`, in that order: 30%, 570 nM and 41 nM.
Consider `CS(=O)(=O)c1cccc(-c2nc(C(c3ccc(F)cc3)c3ccc(F)cc3)sc2CC(=O)O)c1`, for which, in [1], the Efficacy is 30%. The values for the half-inhibitory concentration (IC50) in data set [2] and in data set [4] were 6300 nM and 590 nM, respectively.
As for `O=C(O)Cc1sc(COc2ccc(Cl)cc2)nc1-c1ccc(Cl)cc1`, the Efficacy in data set [1] worked out at 50%. Also, the figures for the IC50 in data set [2] and in data set [4] were 370 nM and 32 nM, respectively.
For the molecule `COc1ccc(C(c2ccc(OC)cc2)c2nc(-c3ccc(F)cc3)c(CC(=O)O)s2)cc1`, the Efficacy in [1] was found to be 80%. In addition, the values for the IC50 in data set [2] and in data set [4] were 31 nM and 3.9 nM, respectively.
On to `O=C(O)Cc1sc(C(c2ccc(F)cc2)c2ccc(F)cc2)nc1-c1ccc(Cl)cc1`, for which, in data set [1], the Efficacy is 80%. Further, the figures for the IC50 in data set [2] and in data set [4] were 180 nM and 9.7 nM, respectively.
For `COc1ccc(C(c2ccccn2)c2nc(-c3ccc(Cl)cc3)c(CC(=O)O)s2)cc1` (stereo not drawn), in that order: 80%, 310 nM and 61 nM.
As for `O=C(O)Cc1sc(C(c2ccccc2)c2ccc(O)cc2)nc1-c1ccc(F)cc1` (stereo not drawn), the Efficacy in [1] is 80%. The IC50 in data set [2] was 30 nM; in [4], 3.4 nM.
The term inhibition denotes the relative decrease from the control value, in per cent. A word on the half-life: it is the time in which the quantity being followed falls by half. What is called clearance is a measure of how efficiently the substance is removed, as volume per time. One may read the bioavailability as the share of a dose that reaches the circulation, judged against a reference dose that is usually intravenous. Broadly, the logD is lipophilicity at a set pH, counting ionised and neutral species. Usually solubility stands for the concentration that dissolves in the medium under given conditions. Take `COc1ccc(C(c2ccccc2)c2nc(-c3ccc(F)cc3)c(CC(=O)O)s2)cc1` (stereo not drawn): the Efficacy in data set [1] was found to be 80%. In addition, the Stability in data set [5] is 0%; in data set [7], 3.3%. Moreover, the inhibition at 1 µM in data set [6] was 5.8%; in data set [10] it was 4.4%. For the same molecule, the IC50 was 31 nM in data set [2] and 3.6 nM in data set [4]. The half-life in [8] is 8.5 h. The clearance in data set [9] stood at 70 mL/min/kg. The molecule further displayed a bioavailability in [11] of 81%. The molecule further came in with a log distribution coefficient (logD) in [12] of 3. In addition, in [13], the solubility turned out to be 40 µM (≈ 17.3 µg/mL).
`O=C(O)Cc1sc(C(c2ccc(F)cc2)c2ccc(F)cc2)nc1-c1ccnc(F)c1`: the Efficacy in data set [1] came out at 80%. Also, the IC50 stood at 4.7 nM in data set [2] and 0.48 nM in data set [4].
With `N#Cc1cc(-c2nc(C(c3ccc(F)cc3)c3ccc(F)cc3)sc2CC(=O)O)ccc1F`, in data set [1], the Efficacy was 80%. The IC50 in data set [2] is 520 nM; in data set [4] it was 57 nM.
